Reference: US20180271847A1, “TREATMENT OF ACUTE TRAUMATIC INJURY” (priority 2015, published 2018)

Tested on: skeletal muscle atrophy
Experiment: Skeletal muscle atrophy after sciatic nerve crush injury
Type: in vivo, mouse
From the text: FIGS. 10A-10F show the rescue of skeletal muscle from atrophy induced by crush injury to the sciatic nerve by daily administration of clinically relevant dosages of 4-AP.
These stem cells are believed to play roles in preventing and/or repairing muscle atrophy.
In particular, 4-AP was applied as a means of preventing skeletal muscle atrophy following damage to the nerve innervating muscles of limb, as illustrated in FIG. 10. In these experiments, the sciatic nerve of the mouse was crushed in such a manner that not all axons were severed. In these injuries, skeletal muscle atrophy is a significant consequence, just as it is in patients with similar injuries. This type of injury can be a problem for many reasons, including the fact that if atrophy is not stopped or reversed within a relatively short period of time, the damage done may become irreversible.

[1] = mouse, sciatic nerve crush injury

Nc1ccncc1 [4-AP, 4-aminopyridine]
numbers of Pax7+ muscle stem cells (both at 7 days and 14 days post nerve crush injury): increased the numbers of Pax7+ cells | muscle strength (mice, 7 days after nerve crush injury, daily 4-AP): greater muscle strength as compared with saline-treated mice | expression of MuRF-1 in muscle [1]: decreases expression of MuRF-1 | expression of myogenin in muscle [1]: decreases expression of myogenin | muscle atrophy judged by cross-sectional size of muscle (mouse, sciatic nerve crush injury, daily 4-AP): decreases muscle atrophy
